Several values for one entry are separate records, joined by “and”; a condition that tells them apart may be missing. Equal entries are not always repeated. Where two headings read alike, the source gives them in different places.
Assays:
[1] = Permeability and efflux ratio in Caco-2 cells; type: in vitro ADME; settings: human
Source text: ATV019, and ATV020 in Caco-2 cells.
Compound Caco-2 AB/BA (Papp (10-6 cm/s)) a Efflux ratio

[2] = system: SARS-CoV-2 replicon system (pBAC-SARS-CoV-2-Replicon-Luc); assay: microbe, parasite or virus in culture; type: cell-based; settings: Severe acute respiratory syndrome coronavirus 2, HEK-293T, 60 h
[3] = system: SARS-CoV-2 (Delta, B.1.617.2); assay: microbe, parasite or virus in culture; type: cell-based; settings: for % Inhibition: delta
[4] = Tissue distribution study in rats; type: in vivo, Sprague Dawley rats; settings: rat, oral 100 mg/kg; for Cmax, RTP in kidney / Cmax, RTP in lung / Cmax, GS-441525 in brain / Cmax, GS-441525 in kidney / Cmax, GS-441525 in lung: individual animals
Protocol: Three rats in each group were anesthetized at 1-, 4-, and 24-hours post-dosing. Blood samples were collected into the heparinized tubes which containing PhosSTOP and DTNB and centrifuged. Tissue samples, including liver, kidney, and lung were harvested after perfusion with saline and immediately homogenized for further analysis as previously described ([64]). […] For RMP and RTP determination, 50 μL of plasma or homogenate was immediately added to 150 μL of 2% formic acid and 5 μL of 10 μM ^13C,^15N-adenosine triphosphate (ATP) aqueous solution, then vortexed thoroughly and centrifuged at 4°C. Supernatant in a volume of 180 μL was mixed with an equivalent volume of water for solid-phase extraction (SPE) with a weak anion exchange plate (Waters Oasis WAX μElution plate). Finally, the eluate was gently evaporated to dryness under a gentle stream of air, and the residue was reconstituted with 100 μL H2O for analysis on a Waters Positive Pressure-96 processor.

[5] = CCK-8 cell viability assay; type: cell-based, African green monkey; settings: African green monkey; Vero E6 cells, 48 h, CCK8
Method in brief: (§1)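 Vero E6 cells, 20,000/well, exposed to compound at 0–200 μM (0, 0.01, 0.1, 1, 5, 10, 50, 75, 100, 200 μM) for 48 h; viability read by CCK-8 and expressed as percentage versus drug concentration, mean ± SD.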

Vero E6 cells = assay: CCK-8 cell viability assay; type: cell-based, African green monkey; settings: individual replicate values, Fig.S4
Method in brief: as §1

[6] = system: SARS-CoV-2 (B.1) in Huh7 cells; assay: Anti-SARS-CoV-2 activity in Huh7 cells (viral yield by qRT-PCR); type: cell-based; settings: B.1, MOI 0.05, 48 h
[7] = system: SARS-CoV-2 (Beta, B.1.351); assay: microbe, parasite or virus in culture; type: cell-based; settings: for EC50: read-out: EC50 in Vero E6 cells, SARS-CoV-2 (Beta, B.1.351); for % Inhibition: beta
SARS-CoV-2 (B.1) = assay: Anti-SARS-CoV-2 activity in Vero E6 cells (viral yield by qRT-PCR); type: cell-based

Structure (SMILES): N#C[C@@]1(c2ccc3c(N)ncnn23)O[C@H](CO)[C@@H](O)[C@H]1O [GS-441524, reference compound]
- Papp A→B ([1]; AB): 1.22 ×10⁻⁶ cm/s
- Papp B→A ([1]; BA): 1.2 ×10⁻⁶ cm/s
- EC50 ([2]; read-out: EC50 (Confidence 95%), replicon): 0.955 µM
- EC90 ([2]; read-out: EC90 (Confidence 95%), replicon): 3.25 µM
- EC50 ([3]; Severe acute respiratory syndrome coronavirus 2, Vero C1008, 48 h, read-out: EC50 in Vero E6 cells, SARS-CoV-2 (Delta, B.1.617.2)): 0.957 µM
- inhibition at 0.01 µM ([3]; Severe acute respiratory syndrome coronavirus 2, Vero C1008, delta, 0.01 uM, Vero E6, replicates): 0%
- inhibition at 0.1 µM ([3]; Severe acute respiratory syndrome coronavirus 2, Vero C1008, delta, 0.1 uM, Vero E6, replicates): 0%
- inhibition at 0.25 µM ([3]; Severe acute respiratory syndrome coronavirus 2, Vero C1008, delta, 0.25 uM, Vero E6, replicates): 0%
- inhibition at 0.5 µM ([3]; Severe acute respiratory syndrome coronavirus 2, Vero C1008, delta, 0.5 uM, Vero E6, replicates): 0%
- inhibition at 2 µM ([3]; Severe acute respiratory syndrome coronavirus 2, Vero C1008, delta, 2 uM, Vero E6, replicates): 94.9%
- inhibition at 5 µM ([3]; Severe acute respiratory syndrome coronavirus 2, Vero C1008, delta, 5 uM, Vero E6, replicates): 97%
- inhibition at 10 µM ([3]; Severe acute respiratory syndrome coronavirus 2, Vero C1008, delta, 10 uM, Vero E6, replicates): 98.7%
- inhibition at 50 µM ([3]; Severe acute respiratory syndrome coronavirus 2, Vero C1008, delta, 50 uM, Vero E6, replicates): 99.8%
- EC90 ([3]; Severe acute respiratory syndrome coronavirus 2, Vero C1008, read-out: EC90 (Confidence 95%), Vero-E6, Delta B.1.617.2): 1.35 µM
- % Inhibition ([3]; 1 uM, Vero E6, replicates): 66.6762% and 46.4634%
- % Inhibition ([3]; 2 uM, Vero E6, replicates): 93.4361%
- % Inhibition ([3]; 5 uM, Vero E6, replicates): 94.7905%
- % Inhibition ([3]; 10 uM, Vero E6, replicates): 95.0345%
- % Inhibition ([3]; 50 uM, Vero E6, replicates): 98.9856%
- Cmax ([4]; GS-441524 in brain): 0.073 µmol/kg
- Cmax ([4]; GS-441524 in kidney): 35.165 µmol/kg
- Cmax ([4]; GS-441524 in liver): 8.776 µmol/kg
- Cmax ([4]; GS-441524 in lung): 5.601 µmol/kg
- Cmax, RTP in kidney ([4]; 1h): 0 nmol/kg
- Cmax, RTP in lung ([4]; 1h): 0 nmol/kg
- Cmax, GS-441525 in brain ([4]; 1h, 100 mg/kg): 0.094 nmol/kg and 0 nmol/kg and 0.045 nmol/kg
- Cmax, GS-441525 in kidney ([4]; 1h, 100 mg/kg): 42.2 nmol/kg and 25.492 nmol/kg and 37.804 nmol/kg
- Cmax, GS-441525 in lung ([4]; 1h, 100 mg/kg): 6.048 nmol/kg and 4.152 nmol/kg and 6.604 nmol/kg
- Cmax, GS-441525 in brain ([4]; 4h): 0 nmol/kg
- Cmax, RTP in kidney ([4]; 4h): 0 nmol/kg
- Cmax, GS-441525 in kidney ([4]; 4h, 100 mg/kg): 28.184 nmol/kg and 26.156 nmol/kg and 22.136 nmol/kg
- Cmax, GS-441525 in lung ([4]; 4h, 100 mg/kg): 4.468 nmol/kg and 3.046 nmol/kg and 3.148 nmol/kg
- Cmax, RTP in lung ([4]; 4h, 100 mg/kg): 0 nmol/kg (2×) and 0.0718 nmol/kg
- Cmax, RTP in kidney ([4]; 24h): 0 nmol/kg
- Cmax, GS-441525 in brain ([4]; 24h, 100 mg/kg): 0.0569 nmol/kg and 0.0928 nmol/kg and 0.0692 nmol/kg
- Cmax, GS-441525 in kidney ([4]; 24h, 100 mg/kg): 0.0683 nmol/kg and 0.0848 nmol/kg and 0.152 nmol/kg
- Cmax, GS-441525 in lung ([4]; 24h, 100 mg/kg): 0.134 nmol/kg and 0.0467 nmol/kg and 0.0435 nmol/kg
- Cmax, RTP in lung ([4]; 24h, 100 mg/kg): 0 nmol/kg (2×) and 0.04488 nmol/kg
- CC50 at 48 h [5]: > 50 µM
- cell viability (% of control) (Vero E6 cells; 0.1 μM compound, 0.1 µM): 105.342 % of control
- cell viability (% of control) (Vero E6 cells; 1 μM compound, 1 µM): 107.061 % of control and 113.737 % of control
- cell viability (% of control) (Vero E6 cells; 2 μM compound, 2 µM): 117.342 % of control and 112.354 % of control and 107.242 % of control
- cell viability (% of control) (Vero E6 cells; 5 μM compound, 5 µM): 121.028 % of control and 116.731 % of control
- cell viability (% of control) (Vero E6 cells; 10 μM compound, 10 µM): 98.5418 % of control and 94.9348 % of control and 94.7813 % of control
- cell viability (% of control) (Vero E6 cells; 20 μM compound, 20 µM): 98.3543 % of control and 95.3243 % of control and 95.3532 % of control
- cell viability (% of control) (Vero E6 cells; 50 μM compound, 50 µM): 93.3231 % of control and 94.7045 % of control and 94.3208 % of control
- EC50 ([6]; Severe acute respiratory syndrome coronavirus 2, Huh-7, read-out: EC50 (Confidence 95%) in Huh7 cells): 1.76 µM
- EC90 ([6]; Severe acute respiratory syndrome coronavirus 2, Huh-7, read-out: EC90 (Confidence 95%) in Huh7 cells): 2.08 µM
- EC50 ([7]; Severe acute respiratory syndrome coronavirus 2, Vero C1008, 48 h): 1.34 µM
- inhibition at 0.01 µM ([7]; Severe acute respiratory syndrome coronavirus 2, Vero C1008, beta, 0.01 uM, Vero E6, replicates): 0%
- inhibition at 0.1 µM ([7]; Severe acute respiratory syndrome coronavirus 2, Vero C1008, beta, 0.1 uM, Vero E6, replicates): 0%
- inhibition at 0.25 µM ([7]; Severe acute respiratory syndrome coronavirus 2, Vero C1008, beta, 0.25 uM, Vero E6, replicates): 0%
- inhibition at 0.5 µM ([7]; Severe acute respiratory syndrome coronavirus 2, Vero C1008, beta, 0.5 uM, Vero E6, replicates): 0%
- inhibition at 1 µM ([7]; Severe acute respiratory syndrome coronavirus 2, Vero C1008, beta, 1 uM, Vero E6, replicates): 21.8%
- inhibition at 2 µM ([7]; Severe acute respiratory syndrome coronavirus 2, Vero C1008, beta, 2 uM, Vero E6, replicates): 85.3%
- inhibition at 5 µM ([7]; Severe acute respiratory syndrome coronavirus 2, Vero C1008, beta, 5 uM, Vero E6, replicates): 99.5%
- inhibition at 10 µM ([7]; Severe acute respiratory syndrome coronavirus 2, Vero C1008, beta, 10 uM, Vero E6, replicates): 99.9%
- inhibition at 50 µM ([7]; Severe acute respiratory syndrome coronavirus 2, Vero C1008, beta, 50 uM, Vero E6, replicates): 99.9%
- EC90 ([7]; Severe acute respiratory syndrome coronavirus 2, Vero C1008, read-out: EC90 (Confidence 95%), Vero-E6, Beta B.1.351): 2.32 µM
- % Inhibition ([7]; 1 uM, Vero E6, replicates): 23.8494%
- % Inhibition ([7]; 2 uM, Vero E6, replicates): 80.342%
- % Inhibition ([7]; 5 uM, Vero E6, replicates): 99.4744%
- % Inhibition ([7]; 10 uM, Vero E6, replicates): 99.9464%
- % Inhibition ([7]; 50 uM, Vero E6, replicates): 99.9252%
- EC50 [7]: 1.35 µM
- % Inhibition (SARS-CoV-2 (B.1); 2 μM, replicates, sheet Fig.S3): 71.478%
- % Inhibition (SARS-CoV-2 (B.1); 5 μM, replicates, sheet Fig.S3): 85.4877%
- % Inhibition (SARS-CoV-2 (B.1); 10 μM, replicates, sheet Fig.S3): 86.8803%
- % Inhibition (SARS-CoV-2 (B.1); B.1, 1 uM, Vero E6, replicates, 1 µM): 3.349%
- % Inhibition (SARS-CoV-2 (B.1); B.1, 2 uM, Vero E6, replicates, 2 µM): 80.3269%
- % Inhibition (SARS-CoV-2 (B.1); B.1, 5 uM, Vero E6, replicates, 5 µM): 96.5344%
- % Inhibition (SARS-CoV-2 (B.1); B.1, 10 uM, Vero E6, replicates, 10 µM): 98.7837%
- % Inhibition (SARS-CoV-2 (B.1); B.1, 50 uM, Vero E6, replicates, 50 µM): 98.8136%
- inhibition at 0.1 µM (SARS-CoV-2 (B.1); Severe acute respiratory syndrome coronavirus 2, Vero C1008, 0.1 μM, replicates, sheet Fig.S3): 0%
- inhibition at 0.5 µM (SARS-CoV-2 (B.1); Severe acute respiratory syndrome coronavirus 2, Vero C1008, 0.5 μM, replicates, sheet Fig.S3): 0%
- inhibition at 1 µM (SARS-CoV-2 (B.1); Severe acute respiratory syndrome coronavirus 2, Vero C1008, 1 μM, replicates, sheet Fig.S3): 0%
- inhibition at 2 µM (SARS-CoV-2 (B.1); Severe acute respiratory syndrome coronavirus 2, Vero C1008, 2 μM, replicates, sheet Fig.S3): 72.7%
- inhibition at 5 µM (SARS-CoV-2 (B.1); Severe acute respiratory syndrome coronavirus 2, Vero C1008, 5 μM, replicates, sheet Fig.S3): 85.9%
- inhibition at 10 µM (SARS-CoV-2 (B.1); Severe acute respiratory syndrome coronavirus 2, Vero C1008, 10 μM, replicates, sheet Fig.S3): 90.7%
- inhibition at 0.01 µM (SARS-CoV-2 (B.1); Severe acute respiratory syndrome coronavirus 2, Vero C1008, B.1, 0.01 uM, Vero E6, replicates): 0%
- inhibition at 0.1 µM (SARS-CoV-2 (B.1); Severe acute respiratory syndrome coronavirus 2, Vero C1008, B.1, 0.1 uM, Vero E6, replicates): 0%
- inhibition at 0.25 µM (SARS-CoV-2 (B.1); Severe acute respiratory syndrome coronavirus 2, Vero C1008, B.1, 0.25 uM, Vero E6, replicates): 0%
- inhibition at 0.5 µM (SARS-CoV-2 (B.1); Severe acute respiratory syndrome coronavirus 2, Vero C1008, B.1, 0.5 uM, Vero E6, replicates): 0%
- inhibition at 2 µM (SARS-CoV-2 (B.1); Severe acute respiratory syndrome coronavirus 2, Vero C1008, B.1, 2 uM, Vero E6, replicates): 72.6%
- inhibition at 5 µM (SARS-CoV-2 (B.1); Severe acute respiratory syndrome coronavirus 2, Vero C1008, B.1, 5 uM, Vero E6, replicates): 95.7%
- inhibition at 10 µM (SARS-CoV-2 (B.1); Severe acute respiratory syndrome coronavirus 2, Vero C1008, B.1, 10 uM, Vero E6, replicates): 98.5%
- inhibition at 50 µM (SARS-CoV-2 (B.1); Severe acute respiratory syndrome coronavirus 2, Vero C1008, B.1, 50 uM, Vero E6, replicates): 98.7%
- EC90 (SARS-CoV-2 (B.1); Severe acute respiratory syndrome coronavirus 2, Vero C1008, read-out: EC90 (Confidence 95%)): 2.39 µM
- EC50 (SARS-CoV-2 (B.1); Severe acute respiratory syndrome coronavirus 2, Vero C1008, MOI 0.05, 48 h): 1.71 µM

Reference: PMC9161374 (Science Translational Medicine, 2022)
